“Also recorded” adds a separate entry of the source.
Experiments:
[1] = Effects on cardiovascular function of the conscious telemetered minipig; type: in vivo; conditions: iv 0.058, 0.175, 0.58 mg/kg
Experimental: The purpose of this study was to investigate the potential effects of ^175Lu-PSMA-R2 on the cardiovascular functions of the conscious telemetered male minipig following intravenous administration at doses of 0.058, 0.175 and 0.583 mg/kg.
The test item or vehicle was administered intravenously into the external auricular vein at a fixed injection rate of 4 mL/min. The dose was administered to each animal at a dose volume of 1 mL/kg body weight.
At 7-day intervals, each animal received the vehicle or one of the three doses of the test item, following the crossover design described in Table 4.
Systolic, diastolic and mean blood pressure (SBP, DBP and MBP), heart rate (HR), body temperature and Lead II electrocardiogram were recorded continuously, from 1 hour before administration up to 24 h after dosing. Haemodynamic and electrocardiographic data were reported at pre-dose and at 5, 15, 30 minutes and 1, 2, 4, 8 and 24 hours post-dose.

[2] = Effect on respiration in the unrestrained conscious rat (whole-body plethysmography); type: in vivo; conditions: single iv 0.2, 0.6, 2 mg/kg; over 4 hours post-injection
Experimental: The aim of this study was to assess the possible effects of 0.2, 0.6 and 2.0 mg/kg ^175LuPSMA-R2 on respiratory function of conscious rats via a whole-body plethysmography method after intravenous administration according to the study design detailed in Table 3.
Inspiratory time, expiratory time, peak inspiratory flow, peak expiratory flow, tidal volume, relaxation time, minute volume, respiratory rate and enhanced pause were continuously recorded from approximately 1 hour before dosing up to 4 hours after dosing. Respiratory […] parameters were reported pre-dose and at 5, 15 and 30 minutes and 1, 1.5, 2, 3 and 4 hours after dosing. Clinical signs were recorded on the day of dosing.

[3] = Plasma protein binding by ultrafiltration, rat plasma; type: in vitro ADME
Experimental: Plasma protein binding of PSMA-R2 and ^175Lu-PSMA-R2 has been determined by ultrafiltration method, after incubation of the compounds in human, mouse, rat and minipig plasma at two different concentrations: 1 and 5 µg/mL.

[4] = test system: Escherichia coli WP2 uvrA; test: Bacterial mutation assay, Escherichia coli; type: cell-based
Experimental: The test item ^175Lu-labelled PSMA-R2 solution was examined for the ability to induce gene mutations in tester strains of Salmonella typhimurium and Escherichia coli, as measured by reversion of auxotrophic strains to prototrophy. The five tester strains TA1535, TA1537, TA98, TA100 and WP2 uvrA were used. Experiments were performed both in the absence and presence of metabolic activation, using liver S9 fraction from rats pre-treated with phenobarbital and 5,6-benzoflavone.
The test item was used as a solution in sodium acetate buffer and all concentrations in this report are expressed in terms of active ingredient. The test item ^175Lu-labelled PSMA-R2 solution was assayed in the toxicity test at a maximum feasible concentration of 1000 µg/plate and at four lower concentrations spaced at approximately half-log intervals: 316, 100, 31.6 and 10.0 µg/plate.
On the basis of the results obtained in the preliminary toxicity test, in the Main Assay, using the plate incorporation method, the test item was assayed with all tester strains at the following dose levels: 1000, 500, 250, 125 and 62.5 µg/plate. […] Since a clear negative result was obtained, no further experiment was undertaken.

[5] = Single dose toxicity study in the minipig; type: in vivo, Göttingen minipigs
Text: A two-week treatment-free period was allowed after administration.
All animals were administrated intravenously. Plasma samples were collected at Day 1 for toxicokinetic analysis.
Mortality, clinical signs, body weight, food consumption, clinical pathology investigations, ophthalmoscopy, ECG evaluations, and macroscopic observations were indexed at necropsy. Then selected organs were weighed and tissues collected.
In addition, plasma samples were collected on Day 1 for toxicokinetic analysis.

[6] = single iv 0.175, 0.58, 1.75 mg/kg

## O=C(O)CCC(NC(=O)NC(CCCCN(Cc1ccc(Br)cc1)C(=O)CCCCCNC(=O)CN1CCN(CC(=O)O)CCN(CC(=O)O)CCN(CC(=O)O)CC1)C(=O)O)C(=O)O.[175Lu] (centres unmarked) [^175Lu-PSMA-R2]
[1]
  Changes in heart rate, arterial blood pressure or electrocardiographic activity: No relevant changes in heart rate, arterial blood pressure or electrocardiographic activity were observed at the tested doses in conscious mini pigs.
[2]
  Changes in respiratory parameters: No changes of toxicological significance were observed in respiratory parameters recorded over 4 hours post-injection.
[3]; 1 µg/mL
  fu (%) fraction unbound: 37.4 ± 4.9%
[3]; 5 µg/mL
  fu (%) fraction unbound: 59.8 ± 4.4%
[4]; 10.0-1000 µg/plate, absence or presence of S9
  Toxicity and revertant numbers, preliminary toxicity test: Neither toxicity, nor relevant increases in revertant numbers
[4]; 62.5-1000 µg/plate, absence or presence of S9
  Toxicity and revertant numbers, Main Assay (plate incorporation): Neither toxicity, nor relevant increases in revertant numbers
[4]; absence or presence of S9 metabolism
  Induction of reverse mutation (conclusion): does not induce reverse mutation
[5]; high dose group (1.75 mg/kg)
  Hematology and clinical chemistry: Some changes in hematology and clinical chemistry were observed in some animals
[5]; [6]
  Organ weights, macroscopic or microscopic changes: No changes in the organ weights and no treatment-related macroscopic or microscopic changes
  Physical signs, ocular findings, electrocardiographic abnormalities: No treatment-related physical signs, ocular findings, nor electrocardiographic abnormalities
[5]; single iv 0.175, 0.583 and 1.75 mg/kg
  Toxicity signs: did not induce signs of toxicity; also recorded: No relevant treatment-related toxicity signs
